Data reported in US12698507B2, “Methods and compositions for conferring and/or enhancing herbicide tolerance using protoporphyrinogen IX oxidase of various cyanobacteria or variant thereof” (FarmHannong Co., Ltd., priority 2019, dated 2026).
Where two headings read alike, the source gives them in different places.

Legend:
[1] = target: T1, Thermosynechococcus elongatus PKUAC-SCTE542 protoporphyrinogen IX oxidase CyPPO19, wild type, SEQ ID NO: 1 (MBP fusion) (Thermosynechococcus sichuanensis, UniProt A0A7D6JSC1); experiment: PPO enzyme inhibition assay (IC50 for herbicides), CyPPO19 wild type fused to MBP; assay type: biochemical
T1 sequence (A0A7D6JSC1 1-467): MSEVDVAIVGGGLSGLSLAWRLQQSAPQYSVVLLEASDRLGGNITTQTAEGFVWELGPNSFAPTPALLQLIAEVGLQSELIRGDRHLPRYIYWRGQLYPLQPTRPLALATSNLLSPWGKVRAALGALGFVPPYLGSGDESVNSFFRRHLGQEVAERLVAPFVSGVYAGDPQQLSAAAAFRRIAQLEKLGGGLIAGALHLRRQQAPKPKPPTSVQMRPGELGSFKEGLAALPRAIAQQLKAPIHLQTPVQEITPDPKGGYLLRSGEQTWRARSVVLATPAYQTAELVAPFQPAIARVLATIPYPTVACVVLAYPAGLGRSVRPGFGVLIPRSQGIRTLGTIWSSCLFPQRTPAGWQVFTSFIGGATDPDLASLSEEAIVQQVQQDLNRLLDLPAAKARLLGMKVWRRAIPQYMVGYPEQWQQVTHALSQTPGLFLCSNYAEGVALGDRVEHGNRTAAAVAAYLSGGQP

[2] = tested on: PPO-deficient BT3 E. coli (ΔPPO) transformed with CyPPO19 variant R89A+F360L (Thermosynechococcus elongatus PKUAC-SCTE542, SEQ ID NO: 1); experiment: Herbicide tolerance test in E. coli, CyPPO19 R89A+F360L; assay type: cell-based; conditions: LB agar, 0 to 2,000 μM herbicide, 37° C., 16-20 hours
Excerpt: (§1) To enhance the PPO-inhibiting herbicide resistance of CyPPO19 and CyPPO18, PPO variant genes of the above example 2 were constructed. They were transformed to BT3 (ΔPPO) strain which is deficient of PPO activity and cultured in LB media with PPO-inhibiting herbicide, thereby examining whether growth of transformed BT3 was not inhibited.
(§2) BT3 competent cells were transformed with the pET303-CyPPO19 (wild type), pET303-CyPPO18 (wild type) plasmids, and those with a mutation(s) constructed (refer to example 2) via heat shock method, and were cultured in LB agar media containing ampicillin.
(§3) Single colony transformed with each CyPPO gene was cultured in 3 mL of LB broth (LPSS) containing ampicillin for more than 12 hours, and then was subcultured in LB broth until absorbance (OD600) reached 0.5 to 1. Then, it was diluted with LB broth to OD600=0.5. Again, the diluted solution was serially diluted 4 times by a factor of one tenth. […]
(§4) Then, 10 μL of each diluted solution of E. coli was dropped on the plate and cultured at 37° C. under dark for 16-20 hours. PPO-inhibiting herbicide resistance was evaluated with the extent of E. coli growth containing each gene was observed.
(§5) The extent of herbicide resistance was evaluated by the relative growth of variants to that of wild type, and listed in Tables 9 and 10 and FIGS. 3 to 32. […]

[3] = tested on: PPO-deficient BT3 E. coli (ΔPPO) transformed with CyPPO19 variant R89A+F360T (Thermosynechococcus elongatus PKUAC-SCTE542, SEQ ID NO: 1); experiment: Herbicide tolerance test in E. coli, CyPPO19 R89A+F360T; assay type: cell-based; conditions: LB agar, 0 to 2,000 μM herbicide, 37° C., 16-20 hours
Excerpt: as §1, §2, §3, §4, §5

[4] = tested on: PPO-deficient BT3 E. coli (ΔPPO) transformed with CyPPO18 variant R89A+F360V (Thermosynechococcus vulcanus NIES-2134, SEQ ID NO: 3); assay type: cell-based; conditions: LB agar, 0 to 2,000 μM herbicide, 37° C., 16-20 hours
Excerpt: as §1, §2, §3, §4, §5

[5] = tested on: PPO-deficient BT3 E. coli (ΔPPO) transformed with CyPPO18 variant V305M+F360I (Thermosynechococcus vulcanus NIES-2134, SEQ ID NO: 3); experiment: Herbicide tolerance test in E. coli, CyPPO18 V305M+F360I; assay type: cell-based; parameters: key to the marks not given beside the values; conditions: LB agar, 0 to 2,000 μM herbicide, 37° C., 16-20 hours
Excerpt: as §1, §2, §3, §4, §5

[6] = tested on: PPO-deficient BT3 E. coli (ΔPPO) transformed with CyPPO18 variant V165S+A167L+V305M+F360I (Thermosynechococcus vulcanus NIES-2134, SEQ ID NO: 3); experiment: Herbicide tolerance test in E. coli, CyPPO18 V165S+A167L+V305M+F360I; assay type: cell-based; parameters: key to the marks not given beside the values; conditions: LB agar, 0 to 2,000 μM herbicide, 37° C., 16-20 hours
Excerpt: as §1, §2, §3, §4, §5

[7] = target: Thermosynechococcus elongatus PKUAC-SCTE542 protoporphyrinogen IX oxidase CyPPO19 (SEQ ID NO: 1) variant A167C (MBP fusion) (Thermosynechococcus sichuanensis, UniProt A0A7D6JSC1, A167C); experiment: biochemical
[8] = target: Thermosynechococcus elongatus PKUAC-SCTE542 protoporphyrinogen IX oxidase CyPPO19 (SEQ ID NO: 1) variant A167I (MBP fusion) (Thermosynechococcus sichuanensis, UniProt A0A7D6JSC1, A167I); experiment: biochemical; conditions: 50 μM protoporphyrinogen IX, pH 7.5, room temperature, 30 min, 10,000 means equivalent to or higher
[9] = target: Thermosynechococcus elongatus PKUAC-SCTE542 protoporphyrinogen IX oxidase CyPPO19 (SEQ ID NO: 1) variant A167L (MBP fusion) (Thermosynechococcus sichuanensis, UniProt A0A7D6JSC1, A167L); experiment: biochemical; conditions: 50 μM protoporphyrinogen IX, pH 7.5, room temperature, 30 min, 10,000 means equivalent to or higher
[10] = target: Thermosynechococcus elongatus PKUAC-SCTE542 protoporphyrinogen IX oxidase CyPPO19 (SEQ ID NO: 1) variant V305M (MBP fusion) (Thermosynechococcus sichuanensis, UniProt A0A7D6JSC1, V305M); experiment: PPO enzyme inhibition assay (IC50 for herbicides), CyPPO19 V305M fused to MBP; assay type: biochemical
[11] = target: Thermosynechococcus vulcanus NIES-2134 protoporphyrinogen IX oxidase CyPPO18 (SEQ ID NO: 3) variant A167C (MBP fusion) (Thermosynechococcus vestitus, UniProt Q8DLV2, A167C); experiment: PPO enzyme inhibition assay (IC50 for herbicides), CyPPO18 A167C fused to MBP; assay type: biochemical; conditions: 50 μM protoporphyrinogen IX, pH 7.5, room temperature, 30 min
[12] = target: Thermosynechococcus vulcanus NIES-2134 protoporphyrinogen IX oxidase CyPPO18 (SEQ ID NO: 3) variant A167I (MBP fusion) (Thermosynechococcus vestitus, UniProt Q8DLV2, A167I); experiment: PPO enzyme inhibition assay (IC50 for herbicides), CyPPO18 A167I fused to MBP; assay type: biochemical; conditions: 50 μM protoporphyrinogen IX, pH 7.5, room temperature, 30 min
Chain of Thermosynechococcus vulcanus NIES-2134 protoporphyrinogen IX oxidase CyPPO18 (SEQ ID NO: 3) variant A167I (MBP fusion) (Q8DLV2 entry or part of it A167I): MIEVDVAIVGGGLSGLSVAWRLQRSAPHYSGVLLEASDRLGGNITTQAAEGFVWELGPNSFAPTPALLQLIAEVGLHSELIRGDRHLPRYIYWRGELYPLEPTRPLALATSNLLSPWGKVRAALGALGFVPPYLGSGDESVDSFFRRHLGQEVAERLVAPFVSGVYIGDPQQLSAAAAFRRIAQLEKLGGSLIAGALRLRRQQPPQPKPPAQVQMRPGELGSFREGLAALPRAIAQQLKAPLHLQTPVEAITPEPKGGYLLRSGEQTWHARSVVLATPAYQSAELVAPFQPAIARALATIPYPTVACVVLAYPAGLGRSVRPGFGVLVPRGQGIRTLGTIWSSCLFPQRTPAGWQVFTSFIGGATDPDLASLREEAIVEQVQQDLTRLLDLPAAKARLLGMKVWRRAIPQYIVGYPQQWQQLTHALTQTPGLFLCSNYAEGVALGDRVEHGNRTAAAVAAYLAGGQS

Chain of Thermosynechococcus elongatus PKUAC-SCTE542 protoporphyrinogen IX oxidase CyPPO19 (SEQ ID NO: 1) variant V305M (MBP fusion) (A0A7D6JSC1 entry or part of it V305M): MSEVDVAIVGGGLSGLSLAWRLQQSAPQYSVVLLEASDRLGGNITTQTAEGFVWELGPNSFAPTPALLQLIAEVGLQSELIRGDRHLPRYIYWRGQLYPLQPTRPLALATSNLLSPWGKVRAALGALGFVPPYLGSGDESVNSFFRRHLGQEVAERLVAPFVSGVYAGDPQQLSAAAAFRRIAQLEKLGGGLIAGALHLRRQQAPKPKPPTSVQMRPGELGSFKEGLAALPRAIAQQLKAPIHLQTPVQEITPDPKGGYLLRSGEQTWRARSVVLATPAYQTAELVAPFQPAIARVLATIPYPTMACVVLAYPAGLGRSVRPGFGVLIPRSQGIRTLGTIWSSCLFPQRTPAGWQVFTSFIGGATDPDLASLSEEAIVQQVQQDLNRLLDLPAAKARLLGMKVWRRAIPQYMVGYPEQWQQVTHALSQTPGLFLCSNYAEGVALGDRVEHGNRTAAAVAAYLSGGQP
Chain of Thermosynechococcus elongatus PKUAC-SCTE542 protoporphyrinogen IX oxidase CyPPO19 (SEQ ID NO: 1) variant A167L (MBP fusion) (A0A7D6JSC1 entry or part of it A167L): as the sequence (A0A7D6JSC1 entry or part of it V305M) above, with A167L, M305V counted along it
Chain of Thermosynechococcus elongatus PKUAC-SCTE542 protoporphyrinogen IX oxidase CyPPO19 (SEQ ID NO: 1) variant A167C (MBP fusion) (A0A7D6JSC1 entry or part of it A167C): as the sequence (A0A7D6JSC1 entry or part of it V305M) above, with A167C, M305V counted along it
Chain of Thermosynechococcus elongatus PKUAC-SCTE542 protoporphyrinogen IX oxidase CyPPO19 (SEQ ID NO: 1) variant A167I (MBP fusion) (A0A7D6JSC1 entry or part of it A167I): as the sequence (A0A7D6JSC1 entry or part of it V305M) above, with A167I, M305V counted along it
Chain of Thermosynechococcus vulcanus NIES-2134 protoporphyrinogen IX oxidase CyPPO18 (SEQ ID NO: 3) variant A167C (MBP fusion) (Q8DLV2 entry or part of it A167C): as the sequence (Q8DLV2 entry or part of it A167I) above, with I167C counted along it

Compound | IC50 [1] | tolerance level (relative growth of variant to wild type) [2] | tolerance level (relative growth of variant to wild type) [3] | tolerance level (relative growth of variant to wild type) [4] | tolerance level (relative growth of variant to wild type) [5] | tolerance level (relative growth of variant to wild type) [6] | IC50 [7] | IC50 ([8]; read-out: IC50) | IC50 ([9]; read-out: IC50) | IC50 [10] | IC50 [11] | IC50 [12] | IC50 ([1]; CyPPO19 WT, 50 μM protoporphyrinogen IX, pH 7.5, room temperature, 30 min) | IC50 ([7]; CyPPO19 A167C, 50 μM protoporphyrinogen IX, pH 7.5, room temperature, 30 min) | IC50 [8] | IC50 [9] | IC50 ([10]; CyPPO19 V305M, 50 μM protoporphyrinogen IX, pH 7.5, room temperature, 30 min)
CCOc1cc(Oc2ccc(C(F)(F)F)cc2Cl)ccc1[N+](=O)[O-] [Oxyfluorfen] | 570 nM | + | + | + | ++ | ++ | 649 nM | 1330 nM | 5260 nM | 732 nM | 570 nM | 2000 nM | – | – | – | – | –
Cc1nn(-c2cc(CC(Cl)C(=O)O)c(Cl)cc2F)c(=O)n1C(F)F (stereo not drawn) [Carfentrazone] | – | + | + | ++ | ++ | ++ | – | – | – | – | 1880 nM | 2600 nM | 763 nM | 3530 nM | ≥ 10000 nM | ≥ 10000 nM | 910 nM
